This note sets out measurements from patent publication US7713994B2 (Wyeth LLC, priority 2005, dated 2010).

The test system of one data set is HCT-116. The data set is described as follows: Cytotoxicity assay (SRB), HCT-116. Type of data set: cell-based. The following applies: Homo sapiens, HCT-116, 72 h, HCT116 cells, SRB, three days; read-out: In Vitro Cellular Activity IC50 HCT116. The gist of the method:
(§1)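 Percentage survival is derived from SRB absorbance (540 nm) versus untreated cells. Exposures were 3 days, except 6 days for BT474, at 37 °C and 7% CO2.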

A further data set concerns the target T1, cyclin D1/cdk 4 enzyme (Homo sapiens, UniProt P11802).
T1 construct: made in house; host or cells: Sf9 insect cells, recombinant baculovirus
The data set can be described thus: CDK4 ELISA kinase assay (phospho-Rb ser 795 detection). The following applies: In Vitro Enzyme Assays, 200 μM ATP, read-out: CDK4 IC50. It counts as biochemical. The gist of the method: (§2)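 Wells were coated overnight with GST-Rb C-terminal fragment, then blocked. Compound (10 ug/ml final) and cyclin/CDK enzyme from baculovirus-infected Sf9 cells with 200 μM ATP reacted 1 h at 30° C. Ser795 phosphorylation was detected by ELISA at 450 nm.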
For orientation: In an ELISA, binding on a coated surface is turned into a signal by an enzyme label.

The test system of the next data set is MCF-7. The data set is described as follows: Cytotoxicity assay (SRB), MCF-7. It counts as cell-based. The following applies: Homo sapiens, MCF7, 72 h, MCF-7 cells, SRB, three days; read-out: In Vitro Cellular Activity IC50 MCF-7. In a few lines: as §1
Another data set concerns the target T2, cyclin E/CDK2 enzyme (Homo sapiens, UniProt P24941).
T2 construct: made in house; host or cells: Sf9 insect cells, recombinant baculovirus
The data set can be described thus: CDK2 ELISA kinase assay (phospho-Rb ser 795 detection). It counts as biochemical. The settings on record: In Vitro Enzyme Assays, read-out: CDK2 IC50. The gist of the method: as §2

Another data set addresses T3, cyclin B/CDK1 enzyme (Homo sapiens, UniProt P06493).
T3 construct: purchased New England BioLabs; host or cells: Sf9 insect cells, recombinant baculovirus
The data set can be described thus: CDK1 ELISA kinase assay (phospho-Rb ser 795 detection). It counts as biochemical. The settings on record: In Vitro Enzyme Assays, read-out: CDK1 IC50. The gist of the method: as §2

The test system of the next data set is LoVo. The data set is described as follows: Cytotoxicity assay (SRB), LoVo. Type of data set: cell-based. The following applies: Homo sapiens, LoVo, 72 h, LoVo cells, SRB, three days; read-out: In Vitro Cellular Activity IC50 LOVO. In a few lines: as §1
For the next data set, the target named is T4, Cyclin D1/CDK6 (Homo sapiens, UniProt Q00534).
T4 construct: made in house; host or cells: Sf9 insect cells, recombinant baculovirus
T4 sequence (Q00534 whole entry, species assumed): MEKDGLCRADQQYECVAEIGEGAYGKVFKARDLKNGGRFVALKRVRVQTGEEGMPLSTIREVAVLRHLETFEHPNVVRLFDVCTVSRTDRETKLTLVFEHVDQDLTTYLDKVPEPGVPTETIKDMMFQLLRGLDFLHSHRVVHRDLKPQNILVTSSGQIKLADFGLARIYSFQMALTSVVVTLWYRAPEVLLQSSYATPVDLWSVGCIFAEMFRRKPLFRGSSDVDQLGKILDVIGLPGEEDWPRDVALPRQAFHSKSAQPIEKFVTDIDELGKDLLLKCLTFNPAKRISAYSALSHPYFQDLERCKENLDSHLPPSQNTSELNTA
T4 sequence (P24385 whole entry partner, species assumed): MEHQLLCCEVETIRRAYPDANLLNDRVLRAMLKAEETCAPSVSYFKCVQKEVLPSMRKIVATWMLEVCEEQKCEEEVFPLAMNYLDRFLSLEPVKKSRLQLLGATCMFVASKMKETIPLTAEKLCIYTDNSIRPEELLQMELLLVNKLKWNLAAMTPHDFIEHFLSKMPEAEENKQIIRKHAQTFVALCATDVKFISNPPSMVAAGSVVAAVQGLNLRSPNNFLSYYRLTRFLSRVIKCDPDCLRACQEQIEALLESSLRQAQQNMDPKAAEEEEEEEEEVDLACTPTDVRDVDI
The data set can be described thus: Cyclin D1/CDK6 Elisa. The settings on record: 200 μM ATP. Type of data set: biochemical. On the procedure: Cyclin D1/CDK6 was expressed in insect cells (Sf9) infected with recombinant baculovirus and partially purified using ammonium sulfate fractionation. Test compounds were diluted in 20% DMSO/20 mM HEPES, pH 7.5 and serial dilutions were prepared (5 concentrations; 0.005-50 µM). High-binding ELISA microtiter plates (Costar) were coated with the kinase substrate (glutathione-S-transferase (GST) fusion of C-terminal fragment of the retinoblastoma susceptibility gene product (Rb). Non-specific binding sites were blocked with Superblock in Tris-buffered saline (TBS; Pierce). Kinase reactions contained the test inhibitor, 200 μM ATP, 0.5 mg/ml bovine serum albumin (BSA; Sigma), and 0.1 μl cyclin D1/cdk 6. Reaction volumes were adjusted to 30 μl with kinase assay buffer (50 mM HEPES, pH 7.5, 10 mM MgCl2, 5% glycerol, 10 mM 2-mercaptoethanol), and plates were incubated at 30° C. for 1 hour. Reactions were terminated by aspiration, and non-specific sites were blocked with blocking buffer (TBS containing 0.1% Tween-20 and 5% nonfat dry milk). Phoshporylation of the substrate was detected using phospho-Rb specific antibodies (ser-795) (Cell Signalling Technologies) and anti-rabbit IgG/horseradish peroxidase conjugates (Amersham Life Science) using TMB as substrate. Colourimetric reactions were stopped with 2N sulphuric acid and the absorbance was measured at 450 nm (Molecular Devices). IC50 values were determined from inhibition plots.

For another data set, the system named is BT474. The data set is described as follows: Cytotoxicity assay (SRB), BT474. It counts as cell-based. The following applies: Homo sapiens, BT-474, 144 h, BT474 cells, SRB, 6 days; read-out: In Vitro Cellular Activity IC50 BT474. In a few lines:
as §1

A further data set concerns the target T5, IGF1-receptor kinase (Homo sapiens, UniProt P08069).
T5 construct: Purified GST-IGFR; purified Bis-IGFR and Tris-IGFR; fused on or other part: GST with a thrombin cleavage site, removed in the Bis-IGFR and Tris-IGFR forms
The data set is described as follows: IGF1-R kinase assay (96-well FRET Lance). It counts as biochemical. The settings on record: for IC50: 100 micromolar ATP, read-out: Igfr ic50. The source says:
• TITLE: 96-well assay for inhibitors of IGF1-receptor kinase activity • SHORT TITLE: IGF1-R kinase assay • PURPOSE: Identify inhibitors of IGF-1 receptor kinase activity • MATERIALS AND METHODS: Overview: This is a 96-well FRET (Lance) tyrosine kinase assay. • Materials: • Purified GST-IGFR; purified Bis-IGFR and Tris-IGFR; expressed in ExpresSF insect cells. Bis and Tris IGFR are made by phosphorylating the IGFR in the presence of ATP and Mg2+, followed by thrombin cleavage to remove the GST-thrombin cleavage site, and purification by HPLC. The Bis and tris IGFR are phosphorylated on two (bis) or all three tyrosines (tris) in the activation loop. • Biotinylated peptide with a sequence corresponding to the sequence surrounding the autophosphorylation sites in IGF1-R Biotin-NH2-[…]-OH (Anaspec) • Europium-conjugated phosphotyrosine antibody (PT66) (Perkin-Elmer). • Surelight APC (Perkin-elmer) • Plates: 96-well Assay plates (polypropylene plates, natural color) • 96-well-Lance plates (Microfluor 2 black plates; Cat # 7205; Thermolabsystems. • ATP: (Amersham Pharmacia Cat # 27-2056-01), 100 mM stock. • IGFR Lance Protocol (96-well format) • Procedure: • Reagents: • Kinase Buffer (10×): • 0.5 M Hepes, pH 7.5 rt • 0.1 M MgCl2 • Quench Buffer (to be added straight, 1:1, to r×n mix): • 50 mM Hepes, pH 7.5 rt • 50 mM EDTA • Lance Detection Buffer: • 20 mM Tris-HCl, pH 7.5 rt • 0.15 M NaCl-150 • 150 ug/ml BSA (Sigma Cat# A-7284) • Eu-labeled phosphotyrosine antibody PT66 (Perkin-Elmer): 1:4000 dilution of 200 μg/ml stock • Streptavidin-APC (Perkin Elmer): 1/250 (4 microgram/ml final) • ATP (Amersham Pharmacia cat #27-2056-01) 100 mM stock: Dilute to 1 mM (10×) in water. […] Transfer 12.5[…] of the kinase reaction to the antibody detection plate. Allow antibody to react for 1 h at rt in the dark. Then read in Victor with an excitation filter of 340 nm and an emission filter of 665 nm. • Compound additions: • When Example compounds are tested, they are added from a 10% DMSO/50 mM Hepes (pH 7.5) 10× stock. 5 microliters of compound in this buffer are added to the enzyme-peptide-buffer mix. After 10′ incubation at room temperature, ATP is added to start the reaction. A no ATP background control is included in the assay. • […] OF RESULTS: Data are analyzed as follows: % Inhibition={[Sample cpm−Bkg cpm]/[No cmpd cpm−Bkg cpm]}×100%. The biological activity of representative Examples of the invention is reported in Table VII as: 0.2 µM≦x≦10 µM or % inhibition@10 µM.

Some results are limits rather than exact numbers.

T5 sequence (P08069 999-1274 limits assumed): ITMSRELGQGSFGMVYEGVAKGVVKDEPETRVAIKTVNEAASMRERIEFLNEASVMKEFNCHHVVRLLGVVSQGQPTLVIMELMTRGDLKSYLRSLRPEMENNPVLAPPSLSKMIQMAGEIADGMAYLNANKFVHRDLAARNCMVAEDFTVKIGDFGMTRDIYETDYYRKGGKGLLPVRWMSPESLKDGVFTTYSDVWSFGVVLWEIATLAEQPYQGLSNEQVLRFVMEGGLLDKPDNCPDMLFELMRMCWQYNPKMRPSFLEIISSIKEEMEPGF
T3 sequence (P06493 whole entry): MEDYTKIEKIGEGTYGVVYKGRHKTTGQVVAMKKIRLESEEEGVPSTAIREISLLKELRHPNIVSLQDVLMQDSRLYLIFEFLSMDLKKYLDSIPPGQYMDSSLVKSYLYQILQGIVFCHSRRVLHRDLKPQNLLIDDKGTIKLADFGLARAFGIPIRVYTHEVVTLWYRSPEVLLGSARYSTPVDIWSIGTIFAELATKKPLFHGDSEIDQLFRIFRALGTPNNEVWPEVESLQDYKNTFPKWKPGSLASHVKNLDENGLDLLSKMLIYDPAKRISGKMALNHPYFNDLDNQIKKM
T3 sequence (P14635 whole entry partner): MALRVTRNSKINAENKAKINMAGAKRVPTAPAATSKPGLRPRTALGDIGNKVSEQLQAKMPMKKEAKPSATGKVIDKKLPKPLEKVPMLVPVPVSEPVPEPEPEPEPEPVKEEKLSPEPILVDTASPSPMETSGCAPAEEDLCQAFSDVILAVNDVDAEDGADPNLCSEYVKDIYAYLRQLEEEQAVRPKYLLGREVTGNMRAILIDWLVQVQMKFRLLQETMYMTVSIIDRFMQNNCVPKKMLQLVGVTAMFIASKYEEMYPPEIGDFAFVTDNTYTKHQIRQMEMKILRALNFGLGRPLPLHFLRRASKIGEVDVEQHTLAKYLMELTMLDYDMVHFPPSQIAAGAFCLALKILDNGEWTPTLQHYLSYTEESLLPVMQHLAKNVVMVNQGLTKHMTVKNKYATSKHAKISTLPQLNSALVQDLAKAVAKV
T1 sequence (P11802 whole entry, species assumed): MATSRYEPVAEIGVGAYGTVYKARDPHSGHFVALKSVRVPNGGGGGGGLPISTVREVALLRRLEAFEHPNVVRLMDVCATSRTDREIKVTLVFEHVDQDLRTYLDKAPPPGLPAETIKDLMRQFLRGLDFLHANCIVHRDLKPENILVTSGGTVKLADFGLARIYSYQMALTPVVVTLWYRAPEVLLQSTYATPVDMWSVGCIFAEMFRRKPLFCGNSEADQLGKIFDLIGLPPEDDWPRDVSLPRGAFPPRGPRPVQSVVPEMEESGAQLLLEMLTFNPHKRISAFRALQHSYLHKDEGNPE
T1 sequence (P24385 whole entry partner, species assumed): as the sequence (P24385 whole entry partner, species assumed) above

In turn, `O=C1NC(=O)c2ccc(Cl)cc2/C1=C/Nc1ccc(CN2CCCCC2)cc1` [Example 55, (4Z)-6-Chloro-4-({[4-(piperidin-1-ylmethyl)phenyl]amino}methylene)isoquinoline-1,3(2H,4H)-dione] gave a melting point of 225 to 226 °C. Besides, the IC50 with HCT-116 came to 5.7 µM. Further, the IC50 at cyclin D1/cdk 4 enzyme came to 2500 nM. Further, in the data set on MCF-7, the IC50 stood at 7 µM. The IC50 on cyclin E/CDK2 enzyme was more than 50 µM. On cyclin B/CDK1 enzyme, the 50% inhibitory concentration (IC50) is more than 50 µM. In addition, the 50% inhibitory concentration (IC50) in the data set with LoVo was 7700 nM. Also, at Cyclin D1/CDK6, half-maximal inhibition (IC50) required 0.12 µM. In addition, in the data set with BT474, the IC50 is 11 µM.

With `COc1ccc(CN/C=C2\C(=O)NC(=O)c3ccc(-n4cccc4)cc32)cc1O` [Example 71], the melting point is 252 to 253 °C. Also, the IC50 in the data set with HCT-116 was 4.7 µM. At cyclin D1/cdk 4 enzyme, the IC50 was found to be 4 nM. Further, the IC50 in the data set with MCF-7 was 7.8 µM. The 50% inhibitory concentration (IC50) at cyclin B/CDK1 enzyme stood at 9.7 µM. Moreover, the IC50 with LoVo stood at 3000 nM. On Cyclin D1/CDK6, this compound returned an IC50 of 0.001 µM. Also, the IC50 in the data set with BT474 worked out at 3.8 µM.

In turn, `O=C1NC(=O)c2ccc(-n3cccc3)cc2/C1=C/Nc1ccc(CN2CCCCC2)cc1` [Example 74] registered a melting point of 207 to 208 °C. The IC50 in the data set on HCT-116 worked out at 2.7 µM. In addition, the IC50 in the data set with MCF-7 was determined as 2.1 µM. The IC50 on cyclin B/CDK1 enzyme is more than 50 µM. Moreover, the IC50 in the data set on LoVo came to 2400 nM. Also, at Cyclin D1/CDK6, the half-maximal inhibitory concentration (IC50) was found to be 0.02 µM. Moreover, in the data set on BT474, the IC50 was determined as 3.3 µM.

`COc1ccc(CN/C=C2\C(=O)NC(=O)c3ccc(I)cc32)cc1O` [Example 80, (4Z)-6-Iodo-4-{[(3-hydroxy-4-methoxybenzyl)amino]methylene}isoquinoline-1,3(2H,4H)-dione]: the half-maximal inhibitory concentration (IC50) in the data set with HCT-116 worked out at 2 µM; on cyclin D1/cdk 4 enzyme it was 10 nM; in the data set with MCF-7, 3.7 µM; at cyclin E/CDK2 enzyme, 0.87 µM; at cyclin B/CDK1 enzyme, 6 µM; in the data set with LoVo, 1500 nM. For the same compound, the results for the 50% inhibitory concentration (IC50) at Cyclin D1/CDK6 and with BT474 were 0.002 µM and 1.7 µM, respectively.

On to `CN1CCN(c2ccc(N/C=C3\C(=O)NC(=O)c4ccc(I)cc43)cc2)CC1` [Example 81, (4Z)-6-Iodo-4-({[4-(4-methylpiperazin-1-yl)phenyl]amino}methylene)isoquinoline-1,3(2H,4H)-dione], for which the IC50 is 480 nM on cyclin D1/cdk 4 enzyme; more than 50 µM at cyclin E/CDK2 enzyme; more than 50 µM at cyclin B/CDK1 enzyme; 5100 nM in the data set on LoVo; 0.1 µM on Cyclin D1/CDK6; 2.8 µM in the data set with BT474.

Regarding `COc1cccc(Nc2ccc3c(c2)/C(=C/Nc2ccc(CN(C)C)cc2)C(=O)NC3=O)c1` [Example 907, (4Z)-4-[({4-[(dimethylamino)methyl]phenyl}amino)methylene]-6-[(3-methoxyphenyl)amino]isoquinoline-1,3(2H,4H)-dione], on IGF1-receptor kinase, the half-maximal inhibitory concentration (IC50) was determined as 1390 nM.

Turning to `COc1ccc(Nc2ccc3c(c2)/C(=C/Nc2ccc(CN(C)C)cc2)C(=O)NC3=O)cc1` [Example 908, (4Z)-4-[({4-[(dimethylamino)methyl]phenyl}amino)methylene]-6-[(4-methoxyphenyl)amino]isoquinoline-1,3(2H,4H)-dione], the IC50 at IGF1-receptor kinase worked out at 566 nM.

As for `CC(=O)c1cccc(Nc2ccc3c(c2)/C(=C/Nc2ccc(CN(C)C)cc2)C(=O)NC3=O)c1` [Example 909, (4Z)-6-[(3-acetylphenyl)amino]-4-[({4-[(dimethylamino)methyl]phenyl}amino)methylene]isoquinoline-1,3(2H,4H)-dione], the half-inhibitory concentration (IC50) at IGF1-receptor kinase stood at 887 nM.

As to `CC(=O)c1cccc(Nc2ccc3c(c2)/C(=C/Nc2ccc(N4CC(C)NC(C)C4)cc2)C(=O)NC3=O)c1` (centres unmarked) [Example 910, (4Z)-6-[(3-acetylphenyl)amino]-4-({[4-(3,5-dimethylpiperazin-1-yl)phenyl]amino}methylene)isoquinoline-1,3(2H,4H)-dione], the IC50 on IGF1-receptor kinase stood at 540 nM.

For `CCN(CC)Cc1ccc(N/C=C2\C(=O)NC(=O)c3ccc(Nc4ccc(C)cc4)cc32)cc1` [Example 911, (4Z)-4-[({4-[(diethylamino)methyl]phenyl}amino)methylene]-6-[(4-methylphenyl)amino]isoquinoline-1,3(2H,4H)-dione], on IGF1-receptor kinase, the 50% inhibitory concentration (IC50) came out at 1160 nM.

In the case of `O=C1NC(=O)c2ccc(Nc3ccc4[nH]ccc4c3)cc2/C1=C/Nc1ccc(CN2CCCCC2)cc1` [Example 912], on IGF1-receptor kinase (10 uM compound), the “Igfr % Inhibition at 10 uM” value came to 9%.

Take `O=C1NC(=O)c2ccc(Nc3cccc4ncccc34)cc2/C1=C/Nc1ccc(CN2CCCCC2)cc1` [Example 913, (4Z)-4-({[4-(piperidin-1-ylmethyl)phenyl]amino}methylene)-6-(quinolin-5-ylamino)isoquinoline-1,3(2H,4H)-dione]: the IC50 at IGF1-receptor kinase was found to be 6160 nM.

Consider `COc1cc(CN/C=C2\C(=O)NC(=O)c3ccc(Br)cc32)cc(O)c1OC` [compound 78], for which the IC50 with HCT-116 was more than 50 µM; at cyclin D1/cdk 4 enzyme, 7 nM; with MCF-7, 32.5 µM; at cyclin E/CDK2 enzyme, more than 50 µM; at cyclin B/CDK1 enzyme, more than 50 µM; with LoVo, more than 50000 nM. For the same compound, the IC50 against Cyclin D1/CDK6 came out at 0.002 µM; in the data set with BT474 it was 42 µM.

The IC50 is the point on the concentration scale where inhibition reaches its midpoint. Broadly, the melting point is the temperature, or range, at which the solid turns liquid.
